Our source for the TGI and GI50 values is PubChem BioAssay (NCI).

Several values for one entry are separate records, joined by “and”; a condition that tells them apart may be missing. Identical values can stand only once.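 Tested at 5 concentrations; 48 h exposure; 96-well plates; endpoints linearly interpolated, else capped at highest concentration. Abbreviation: GI50, concentration required for 50% inhibition of growth. Definition used: TGI = concentration required for complete inhibition of growth.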

In one test the test system is A549 NSCLC. In words: inhibition of tumour cell growth, NCI panel, 48 h.
As for `C[C@]12CC=CC(=O)[C@@]1(C)CCC(=O)C2`, the TGI is above 100 µM.
Still for that read-out and setting: for `CC(=O)Oc1cc2c(cc1OC(C)=O)C1(C)CCC2(C)c2cc(OC(C)=O)c(OC(C)=O)cc21` the value was above 100 µM; for `CCCC1(CC(=O)O)OCCc2c1[nH]c1ccccc21` (stereo unspecified), above 100 µM.
Compound `CN(C)Cc1cc(C(F)(F)F)ccc1C(O)(c1ccccc1)c1ccccc1` returned a TGI of 29.5 µM.
Same read-out and setting: the same measure for `O=C(NC(=O)c1c(F)cccc1F)Nc1cccc(Oc2ncc(Cl)cn2)c1`: above 100 µM; for `CSC(SC)(C(=O)O)c1cc(-c2c(Cl)cccc2Cl)no1`: above 100 µM.

A further test deals with DU-145 prostate. Nature of the test: inhibition of tumour cell growth, NCI panel, 48 h.
`NCCCNCCS` showed a TGI above 100 µM.
In the case of `O=C1C=CC(=O)C2C1C1(Cl)C(Cl)=C(Cl)C2(Cl)C1(Cl)Cl` (stereo unspecified), the GI50 is 3.73 µM and the TGI turned out to be 15.6 µM.
For `C=CC(=O)N1CCC(Oc2cc3c(Nc4ccc(Cl)c(Cl)c4F)ncnc3cc2OC)CC1`, the TGI was 15.4 µM and > 10 µM.
The same measure, in the same setting: for `O=C(O)CCCc1ccc2ccc3ccccc3c2c1` the value was above 100 µM.
For the compound `CC(=O)OC1OC([C@H]2c3cccc(O)c3C(=O)c3c(O)cc(C)cc32)C(O)C(O)C1O` (stereo partly specified), the GI50 was 0.281 µM and the TGI came to 12.5 µM.
For `Cc1cc(Cl)ccc1OCC(=O)Nc1nc2c(Cl)cccc2s1` the same measures were 26.4 µM and above 100 µM.
The compound `CNC(=O)OCc1c(COC(=O)NC)c(-c2ccc(-c3ccccc3)cc2)n(C)c1C` registered a TGI of 9.4 µM.
Take `COc1cccc2c1C(=N)c1c(O)c3c(c(O)c1C2=O)C[C@@](O)(C(C)=O)C[C@@H]3O[C@H]1C[C@H](N)[C@H](O)[C@H](C)O1`: the GI50 was 0.292 µM and the TGI worked out at 1.72 µM.
The corresponding values for `Cc1cn(-c2cc(NC(=O)c3cccc(C#Cc4cccc5[nH]nc(N)c45)c3)cc(C(F)(F)F)c2)cn1` are 10.3 µM and 40.7 µM.
The corresponding values for `N/N=C\c1c2ccccc2c(=O)n2c1oc1ccccc12` are 10.6 µM and 24.9 µM.
The compound `CN(C)Cc1cc(C(F)(F)F)ccc1C(O)(c1ccccc1)c1ccccc1` yielded a TGI above 100 µM.
On the same count and under the same terms, for `O=C(NC(=O)c1c(F)cccc1F)Nc1cccc(Oc2ncc(Cl)cn2)c1` the value was above 100 µM.
The same measure, in the same setting: for `CSC(SC)(C(=O)O)c1cc(-c2c(Cl)cccc2Cl)no1` the value was above 100 µM.

The next test deals with NCI-H522 lung. Nature of the test: inhibition of tumour cell growth, NCI panel, 48 h.
`CCC1=CCN(c2cc(C)ccn2)OC1c1ccc(OC)cc1` (stereo unspecified) returned a TGI of 52.1 µM.
On the same count and under the same terms, for `CC(=O)Oc1c(C)c(-c2ccccc2)c(C)c(-c2ccccc2)c1C(=S)c1ccccc1` the value was above 100 µM.
Same read-out and setting: the same measure for `CC1(O)C(C)(O)C2(C)O[Te]3(OC12C)OC1(C)C(C)(O)C(C)(O)C1(C)O3` (stereo unspecified): 42.2 µM.
The same measure, in the same setting: for `COc1cc(NCC(C#N)C#N)ccc1N=Nc1ccc(Cl)cc1` the value was 31.9 µM.
In the case of `CC(=O)c1ccc(NC(=O)/C(CC(=O)c2sc(-c3cccnc3)nc2C)=N/NC(N)=O)cc1`, the TGI was above 100 µM.
The compound `NCCCNCCS` had a TGI above 100 µM.
On the same count and under the same terms, the same measure for `COc1ccc(NC(=O)CC/C(CC(=O)c2ccco2)=N/NC(=O)C(N)=O)cc1`: above 100 µM.
Consider `O=C1C=CC(=O)C2C1C1(Cl)C(Cl)=C(Cl)C2(Cl)C1(Cl)Cl` (stereo unspecified), for which the GI50 was 3.73 µM and the TGI stood at 13.1 µM.
Take `C=CC(=O)N1CCC(Oc2cc3c(Nc4ccc(Cl)c(Cl)c4F)ncnc3cc2OC)CC1`: the GI50 was < 0.01 µM and 0.00141 µM; the TGI was 4.19 µM and 0.782 µM.
Compound `NC(CCCC(N)P(=O)(O)O)P(=O)(O)O` (stereo unspecified) displayed a TGI above 100 µM.
Same read-out and setting: for `O=C(O)CCCc1ccc2ccc3ccccc3c2c1` the value was above 100 µM.
For `CC(=O)OC1OC([C@H]2c3cccc(O)c3C(=O)c3c(O)cc(C)cc32)C(O)C(O)C1O` (stereo partly specified), the GI50 was 0.0479 µM and the TGI stood at 19.9 µM.
As to `Cc1cc(Cl)ccc1OCC(=O)Nc1nc2c(Cl)cccc2s1`, the GI50 was 46.9 µM and the TGI was above 100 µM.
As to `CNC(=O)OCc1c(COC(=O)NC)c(-c2ccc(-c3ccccc3)cc2)n(C)c1C`, the TGI was 4.04 µM.
Turning to `COc1cccc2c1C(=N)c1c(O)c3c(c(O)c1C2=O)C[C@@](O)(C(C)=O)C[C@@H]3O[C@H]1C[C@H](N)[C@H](O)[C@H](C)O1`, the GI50 is 0.256 µM and the TGI came out at 1.5 µM.
Turning to `Cc1cn(-c2cc(NC(=O)c3cccc(C#Cc4cccc5[nH]nc(N)c45)c3)cc(C(F)(F)F)c2)cn1`, the GI50 was 5.48 µM and the TGI worked out at 49 µM.
The corresponding values for `N/N=C\c1c2ccccc2c(=O)n2c1oc1ccccc12` are 13.6 µM and 46 µM.
`C[C@]12CC=CC(=O)[C@@]1(C)CCC(=O)C2` yielded a TGI above 100 µM.
`CN(C)Cc1cc(C(F)(F)F)ccc1C(O)(c1ccccc1)c1ccccc1` registered a TGI of 35 µM.
Same read-out and setting: the same measure for `O=C(NC(=O)c1c(F)cccc1F)Nc1cccc(Oc2ncc(Cl)cn2)c1`: above 100 µM; for `CSC(SC)(C(=O)O)c1cc(-c2c(Cl)cccc2Cl)no1`: 80.3 µM.

The next test relates to KM20L2 colon. In words: inhibition of tumour cell growth, NCI panel, 48 h.
Take `CCC1=CCN(c2cc(C)ccn2)OC1c1ccc(OC)cc1` (stereo unspecified): the TGI is above 100 µM.
The compound `CC(=O)Oc1c(C)c(-c2ccccc2)c(C)c(-c2ccccc2)c1C(=S)c1ccccc1` registered a TGI above 100 µM.
Regarding `COc1ccc(C=O)cc1O[Si](C)(C)C(C)(C)C`, the TGI was above 100 µM.
On the same count and under the same terms, the same measure for `COc1cc(NCC(C#N)C#N)ccc1N=Nc1ccc(Cl)cc1`: 29.3 µM; for `CC(=O)c1ccc(NC(=O)/C(CC(=O)c2sc(-c3cccnc3)nc2C)=N/NC(N)=O)cc1`: above 100 µM; for `Cc1ccc(S(=O)(=O)OC2CC=CC2)cc1`: above 100 µM.
Compound `NCCCNCCS` yielded a TGI above 100 µM.
The same measure, in the same setting: the same measure for `OCC12C=CC(C1)c1ccccc12` (stereo unspecified): above 100 µM; for `CCOC1C(Br)Cn2c(=O)c3cc4ccccc4cc3c(=O)n2C1C` (stereo unspecified): above 100 µM.
Same read-out and setting: for `COc1ccc(NC(=O)CC/C(CC(=O)c2ccco2)=N/NC(=O)C(N)=O)cc1` the value was above 100 µM; for `CC(=O)C1C(c2ccccc2)C2(C)OC(=O)C(C#N)C12C` (stereo unspecified), above 100 µM; for `CC(=O)Oc1cc2c(cc1OC(C)=O)C1(C)CCC2(C)c2cc(OC(C)=O)c(OC(C)=O)cc21`, 79.5 µM.
Same read-out and setting: for `CCCC1(CC(=O)O)OCCc2c1[nH]c1ccccc21` (stereo unspecified) the value was above 100 µM.
